Experimental findings from ChEMBL document CHEMBL1156956, “Triazines incorporating (R)-3-methylmorpholine are potent inhibitors of the mammalian target of rapamycin (mTOR) with selectivity over PI3Kalpha” (Bioorg Med Chem Lett, 2010) are described below.

The target of experiment [1] is Serine/threonine-protein kinase mTOR (Rattus norvegicus, UniProt P42346). Nature of the experiment: Inhibition of rat brain mTOR assessed as p70S6k-GST protein phosphorylation after 30 mins by ELISA. Background: In an ELISA, binding on a coated surface is turned into a signal by an enzyme label.
Experiment [2] deals with Phosphatidylinositol 4,5-bisphosphate 3-kinase catalytic subunit alpha isoform (Homo sapiens, UniProt P42336). Nature of the experiment: Inhibition of PI3Kalpha assessed as PIP3 accumulation after 24 mins by HTRF assay. On the technique in general: TR-FRET usually uses a lanthanide donor and a delayed reading to cut background.
Sequence of Phosphatidylinositol 4,5-bisphosphate 3-kinase catalytic subunit alpha isoform (P42336 whole entry, canonical isoform): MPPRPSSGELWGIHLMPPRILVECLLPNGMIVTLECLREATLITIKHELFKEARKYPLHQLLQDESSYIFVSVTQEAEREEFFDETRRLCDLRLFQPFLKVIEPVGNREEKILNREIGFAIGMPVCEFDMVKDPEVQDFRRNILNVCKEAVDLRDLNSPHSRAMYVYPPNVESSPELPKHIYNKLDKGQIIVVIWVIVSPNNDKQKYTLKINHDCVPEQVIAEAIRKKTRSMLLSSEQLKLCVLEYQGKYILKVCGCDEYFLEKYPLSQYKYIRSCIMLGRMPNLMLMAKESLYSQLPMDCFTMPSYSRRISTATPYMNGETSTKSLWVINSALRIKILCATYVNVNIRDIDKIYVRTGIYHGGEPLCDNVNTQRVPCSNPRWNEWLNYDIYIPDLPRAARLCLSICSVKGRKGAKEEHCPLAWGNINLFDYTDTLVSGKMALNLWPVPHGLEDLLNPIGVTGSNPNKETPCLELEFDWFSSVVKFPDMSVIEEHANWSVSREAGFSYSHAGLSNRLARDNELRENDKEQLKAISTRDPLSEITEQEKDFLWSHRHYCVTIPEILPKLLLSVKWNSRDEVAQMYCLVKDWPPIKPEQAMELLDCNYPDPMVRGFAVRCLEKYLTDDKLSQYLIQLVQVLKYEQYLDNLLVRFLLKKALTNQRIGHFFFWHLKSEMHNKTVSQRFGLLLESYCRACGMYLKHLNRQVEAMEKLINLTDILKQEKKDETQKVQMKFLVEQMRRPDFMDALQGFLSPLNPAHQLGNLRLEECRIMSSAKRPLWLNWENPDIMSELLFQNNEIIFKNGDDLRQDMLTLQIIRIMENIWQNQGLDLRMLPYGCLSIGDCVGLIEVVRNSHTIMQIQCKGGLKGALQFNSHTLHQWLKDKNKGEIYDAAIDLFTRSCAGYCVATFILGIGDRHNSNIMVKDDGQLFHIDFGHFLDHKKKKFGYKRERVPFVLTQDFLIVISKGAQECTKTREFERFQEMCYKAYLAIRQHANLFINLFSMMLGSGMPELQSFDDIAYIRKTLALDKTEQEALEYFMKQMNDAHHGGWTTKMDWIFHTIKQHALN
Experiment [3] in a line: Growth inhibition of human MDA468 cells after 3 days by MTS assay. The class given is functional, cell-based. To be noted: MDA-MB-468, 72 h. On the technique in general: Tetrazolium dyes change colour on reduction, which living cells bring about.
A further experiment has as its system LNCaP. Nature of the experiment: Growth inhibition of human LNCAP cells after 3 days by MTS assay. To be noted: 72 h. The class given is functional, cell-based.

The term IC50 denotes the concentration at which inhibition is half-maximal. With `C[C@@H]1COCCN1c1nc(-c2ccc(NC(=O)Nc3ccc(C(=O)N4CCC(N(C)C)CC4)cc3)cc2)nc(N2CCOC[C@H]2C)n1`, the values for the half-inhibitory concentration (IC50) in experiment [1], in experiment [2] and in experiment [3] were 0.5 nM, 55 nM and 5 nM, respectively.
Consider `CC(C)N1CCN(C(=O)c2ccc(NC(=O)Nc3ccc(-c4nc(C5CCOCC5)nc(N5CCOC[C@H]5C)n4)cc3)cc2)CC1`, for which the IC50 is under 0.8 nM in the experiment with LNCaP, 0.7 nM in experiment [1] and under 0.8 nM in experiment [3].
On to `C[C@@H]1COCCN1c1nc(-c2ccc(NC(=O)Nc3ccc(N4CCC(N(C)C)CC4)cc3)cc2)nc(C2CCOCC2)n1`, for which the figures for the IC50 (with LNCaP; in experiment [1]; in experiment [3]) were 16 nM, 1.7 nM and 38 nM, respectively.
For `C[C@@H]1COCCN1c1nc(-c2ccc(NC(=O)Nc3ccc(N4CCN(C)CC4)nc3)cc2)nc(N2CCOC[C@H]2C)n1` the same measures were 12 nM, 1.7 nM and 40 nM.
For the molecule `C[C@@H]1COCCN1c1nc(-c2ccc(NC(=O)Nc3ccc(OCCN(C)C)cc3)cc2)nc(N2CCOC[C@H]2C)n1`, the half-maximal inhibitory concentration (IC50) was 8 nM in the experiment with LNCaP, 0.7 nM in experiment [1], 314 nM in experiment [2] and 45 nM in experiment [3].
In the case of `C[C@@H]1COCCN1c1nc(-c2ccc(NC(=O)Nc3ccc(C(=O)N4CCN(C)CC4)cc3)cc2)nc(N2CCOC[C@H]2C)n1`, the half-maximal inhibitory concentration (IC50) in the experiment on LNCaP is under 0.8 nM; in experiment [1], 1.7 nM; in experiment [3], under 0.8 nM.
For `C[C@@H]1COCCN1c1nc(-c2ccc(NC(=O)Nc3ccc(N4CCC(N(C)C)CC4)cc3)cc2)nc(N2CCOC[C@H]2C)n1`, the IC50 in experiment [1] is 1.9 nM; in experiment [3] it was 80 nM.
Take `C[C@@H]1COCCN1c1nc(-c2ccc(NC(=O)Nc3ccc(N4CCNCC4)cc3)cc2)nc(C2CCOCC2)n1`: the IC50 turned out to be 2 nM with LNCaP, 0.8 nM in experiment [1] and 9 nM in experiment [3].
On the same counts, the results for `C[C@@H]1COCCN1c1nc(-c2ccc(NC(=O)Nc3ccc(N4CCN(C)CC4)cc3)cc2)nc(N2CCOC[C@H]2C)n1` are 3 nM, 1.1 nM and 10 nM.
For `C[C@@H]1COCCN1c1nc(-c2ccc(NC(=O)Nc3ccc(C(=O)N(C)C)cc3)cc2)nc(N2CCOC[C@H]2C)n1` the same measures were under 0.8 nM, 0.5 nM and under 0.8 nM.
As for `C[C@@H]1COCCN1c1nc(-c2ccc(NC(=O)Nc3ccncc3)cc2)nc(N2CCOC[C@H]2C)n1`, the results for the concentration for half-maximal inhibition (IC50) in experiment [1] and in experiment [3] were 0.2 nM and 40 nM, respectively.
For `C[C@@H]1COCCN1c1nc(-c2ccc(NC(=O)Nc3cccnc3)cc2)nc(C2CCOCC2)n1` the same measures were 0.6 nM and 80 nM.
On to `C[C@@H]1COCCN1c1nc(-c2ccc(NC(=O)Nc3ccc(N4CCN(C)CC4)cc3)cc2)nc(C2CCOCC2)n1`, for which the IC50 in the experiment with LNCaP was 1 nM; in experiment [1], 0.7 nM; in experiment [3], 6 nM.
On to `C[C@@H]1COCCN1c1nc(-c2ccc(NC(=O)Nc3ccc(C(=O)N4CCN(C)CC4)cc3)cc2)nc(C2CCOCC2)n1`, for which the IC50 is under 0.8 nM in the experiment on LNCaP, 1 nM in experiment [1] and under 0.8 nM in experiment [3].
On to `C[C@@H]1COCCN1c1nc(-c2ccc(NC(=O)Nc3cccnc3)cc2)nc(N2C[C@@H]3C[C@H]2CO3)n1`, for which the results for the half-maximal inhibitory concentration (IC50) (with LNCaP; in experiment [1]; in experiment [3]) were 250 nM, 3.6 nM and 300 nM, respectively.
Take `C[C@@H]1COCCN1c1nc(-c2ccc(NC(=O)Nc3cccnc3)cc2)nc(N2CCOC[C@H]2C)n1`: the half-maximal inhibitory concentration (IC50) came to 12 nM in the experiment on LNCaP, 0.2 nM in experiment [1] and 100 nM in experiment [3].
On the same counts, the results for `C[C@@H]1COCCN1c1nc(-c2ccc(NC(=O)Nc3ccc(CN(C)C)cc3)cc2)nc(N2CCOC[C@H]2C)n1` are 21 nM, 2 nM and 50 nM.
Turning to `C[C@@H]1COCCN1c1nc(-c2ccc(NC(=O)Nc3ccc(N4CCN(C)CC4)nc3)cc2)nc(C2CCOCC2)n1`, the 50% inhibitory concentration (IC50) in experiment [3] was determined as 52 nM.
